Measured values as given in patent US9018173B2, “Materials and methods for suppressing inflammatory and neuropathic pain” (Indiana University Research and Technology Corp., priority 2010, dated 2015).
Entries after “also recorded” stand apart in the source; their conditions may differ. Like-named read-outs stand apart in the source and are kept apart here. Residues, ends and D or L forms follow the SMILES beside them.

Assays:
[1] = test system: CRMP-2 binding to L1 and Ct-dis regions of CaV2.2; experiment: In vitro binding of L1-GST and Ct-dis-GST fusion proteins to CRMP-2; parameters: species or system rat; conditions: peptides 10 μM
Description: In Vitro Protein Binding Assays. Using Vector NTI (v. 11; Invitrogen) software, primers were designed to amplify regions corresponding to the first cytoslic loop (L1; amino acids 356 to 483) and the distal end of the C-terminus (Ct-dis; amino acids 2133 to 2348) of rat CaV2.2 cDNA from P3 rat brain cDNA. The primers harbored restriction sites (Bam HI or Bgl II (5′) and Eco RI or Mfe I (3′)) to facilitate cloning into […]. In addition to the GST-tag, this vector contains the Glu tag, a sequence of six amino acids (EYMPME). Correctly-amplified PCR products and parent pGex-3x-Glu vector were digested with the indicated restriction enzymes, and then extracted following electrophoresis on an agarose gel. The extracted DNAs were quantified (Nanodrop 1000, Thermo Scientific), and ligations were performed using 6:1 and 3:1 insert to vector molar ratios. […]
Monoclonal Glu antibody-saturated Protein G beads (GE Healthcare) carrying various CaV2.2 cytoplasmic loop constructs were incubated with rat brain synaptosome protein in the presence of TAT control or TAT CBD3 peptides (10 μM) in a total reaction volume of 400 μl. […] The samples were then washed three times with a 1000-fold excess of binding buffer, and the proteins were eluted in 40 μl of SDS gel buffer and boiled for 5 min, after which 20 μl of each assay was run on SDS-PAGE and analyzed by immunoblotting with CRMP-2.

[2] = test system: cortical layer V pyramidal neurons; experiment: Cortical slice recordings of evoked EPSCs; assay type: cell-based, CD1 mice; conditions: 10 μM
[3] = test system: tail kinking and body contortion; experiment: Observation of side-effects after i.p. injection in rats; assay type: in vivo, rat; conditions: 20 mg/kg i.p.
Description: Referring now to FIG. 24. Biodistribution and side-effects of TAT-CBD3. […] Oxygenated blood was collected from a cardiac puncture. […] The 95% confidence limits are also indicated.

motor coordination = experiment: Rotarod test for motor coordination; assay type: in vivo, mouse (C57BL6); conditions: 10 and 50 mg/kg i.p.
Procedure: Rotarod test for motor coordination. The rotarod test was performed as described previously (Onyszchuk, G., He, Y. Y., Berman, N. E., & Brooks, W. M. Detrimental effects of aging on outcome from traumatic brain injury: a behavioral, magnetic resonance imaging, and histological study in mice. J. Neurotrauma. 25, 153-171 (2008)) with slight modifications. Briefly, the latency to fall off a rotating rod was measured at two different rotational accelerations (fast and slow). The rotarod device (IITC Life Science, Inc., Woodland Hills, Calif., USA) consists of a metal rod with hard plastic drums (diameter: 1.25 in) in each of five individual lanes. For slow acceleration, the device was accelerated from 1 rpm to 18 rpm over 90 seconds, with each trial lasting a maximum of 120 seconds. For fast acceleration, the device was accelerated from 1 rpm to 30 rpm over 90 seconds, with each trial lasting a maximum of 120 seconds. The trials ended when the mouse (C57BL6) either fell off the rod or clung to the rod as it made one complete rotation. The rotarod tests were performed before the injection to score the baseline latencies for each animal. These trials also served to acclimate the animals to the test paradigm. […] Performance was evaluated 3 days following injection.

spatial memory = experiment: Morris water maze test of spatial/reference memory; assay type: in vivo, mice; conditions: 10 mg/kg i.p., 1 h-7 d after administration
Procedure: The rotarod test for motor coordination was performed as described with slight modifications. Following i.p. injection of vehicle or peptides, mice were tested with three trials each of fast and slow acceleration. The Morris water maze test was used to test reference/spatial memory. Mice were trained prior to the i.p. injection of TAT-Scramble or TAT-CBD3 peptides for 4 consecutive days (4 trials/day). Performance was evaluated 3 days following injection. Morris water maze test of spatial/reference memory. The Morris water maze test was used to test spatial memory. The maze consisted of a plastic pool (100 cm in diameter and 60 cm in depth) filled with water to a depth of 26.5 cm, with a clear Plexiglas stand (10 cm in diameter and 26 cm in height [i.e., 0.5 cm below the water's surface]) used as the hidden goal platform. The mice were trained prior to the injection for 4 consecutive days (4 trials/day). For each daily block of four trials, the mice were placed in the pool facing the wall. Trials were initiated from each of the four possible start locations (north, east, south, west) in a randomized manner. A maximum of 60 sec was allowed for each mouse to find the hidden platform. […] Mice were excluded from the study if their average latency to locate the platform on day 4 of the trials was greater than 50 sec. […]

[4] = test system: dorsal root ganglion neurons; conditions: 10 μM, 12 h

| Molecule | interaction between CRMP-2 and L1 or Ct-dis regions of CaV2.2 [1] | paired-pulse ratio (PPR) [2] | duration of contortion and tail kinking [3] | onset of contortion and tail kinking after injection [3] | side-effects observed [3] | number of episodes of contortion and tail kinking ([3]; 60 min observation) | accelerating rotarod performance (motor coordination) | coordination or spatial memory (Morris water maze) (spatial memory) | cell viability (MTT, absorbance at 490 nm) [4] | cell viability (MTT, absorbance at 490 nm) ([4]; listed as TAT CBD3) |
| --- | --- | --- | --- | --- | --- | --- | --- | --- | --- | --- |
| ARSRLAELRGVPRGL (CBD3) | disrupted the interaction | increased pair pulse ratios | – | – | – | – | – | – | – | – |
| CC(C)C[C@H](NC(=O)CNC(=O)[C@H](CCCNC(=N)N)NC(=O)[C@@H]1CCCN1C(=O)[C@@H](NC(=O)CNC(=O)[C@H](CCCNC(=N)N)NC(=O)[C@H](CC(C)C)NC(=O)[C@H](CCC(=O)O)NC(=O)[C@H](C)NC(=O)[C@H](CC(C)C)NC(=O)[C@H](CCCNC(=N)N)NC(=O)[C@H](CO)NC(=O)[C@H](CCCNC(=N)N)NC(=O)[C@H](C)NC(=O)[C@H](CCCNC(=N)N)NC(=O)[C@H](CCCNC(=N)N)NC(=O)[C@H](CCCNC(=N)N)NC(=O)[C@H](CCC(N)=O)NC(=O)[C@H](CCCNC(=N)N)NC(=O)[C@H](CCCNC(=N)N)NC(=O)[C@H](CCCCN)NC(=O)[C@H](CCCCN)NC(=O)[C@H](CCCNC(=N)N)NC(=O)CNC(=O)[C@@H](N)Cc1ccc(O)cc1)C(C)C)C(=O)O [TAT-CBD3] (H-YGRKKRRQRRRARSRLAELRGVPRGL-OH; N-terminus and C-terminus assumed) | – | – | dissipated fifteen seconds following their first appearance | about 15 seconds | whole-body lordosis-like contortion (black arrow) and tail kinking; also recorded: Transient contortions were observed | Only a single episode of contortion and tail kinking movement | had no effect in the accelerating rotarod test | did not affect coordination or spatial memory | without affecting cell viability | does not affect cell viability |
